One assay relates to MCF-7 cells. Put plainly: Breast cancer cell viability assay (CellTiter-Glo, 5 days). Type of assay: cell-based. The following applies: 5 days' compound exposure; for IC50: Homo sapiens, MCF7, 120 h. Put shortly:
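MCF-7 cells, 320 per well in RPMI with 10% FBS and 20 mM HEPES, adhered overnight, then exposed 5 days to an eleven-point semilog dilution (final 0.3-0.000003 μM). CellTiter-Glo luminescence read; % viability = (sample − cell-free background)/(untreated − background) × 100.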
A general note: Cellular ATP, detected with luciferase, serves as a proxy for viable cell number.

In a further assay the target is T1, ER-α in MCF-7 cells (Homo sapiens, UniProt P03372).
T1 sequence (P03372 1-595): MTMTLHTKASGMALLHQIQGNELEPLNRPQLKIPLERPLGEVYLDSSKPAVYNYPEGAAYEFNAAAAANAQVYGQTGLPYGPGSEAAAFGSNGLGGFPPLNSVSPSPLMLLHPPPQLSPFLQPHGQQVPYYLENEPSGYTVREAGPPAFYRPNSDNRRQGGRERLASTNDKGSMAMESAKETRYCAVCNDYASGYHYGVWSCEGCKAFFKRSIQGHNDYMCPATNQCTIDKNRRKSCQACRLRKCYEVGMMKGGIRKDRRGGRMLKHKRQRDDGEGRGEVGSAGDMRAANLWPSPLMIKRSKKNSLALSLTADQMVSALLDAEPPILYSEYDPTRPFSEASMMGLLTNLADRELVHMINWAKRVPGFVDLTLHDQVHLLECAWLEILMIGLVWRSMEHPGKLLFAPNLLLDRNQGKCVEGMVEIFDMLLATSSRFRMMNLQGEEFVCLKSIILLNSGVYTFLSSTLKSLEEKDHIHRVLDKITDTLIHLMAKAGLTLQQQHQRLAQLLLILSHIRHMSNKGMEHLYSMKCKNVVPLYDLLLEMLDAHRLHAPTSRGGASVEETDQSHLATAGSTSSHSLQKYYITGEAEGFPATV
Nature of the assay: Breast cancer cell ER-α in cell western assay (SP1). Type of assay: cell-based. Also on record: endogenous in cells; host or cells: MCF-7. The settings on record: 4 or 24 hr post compound addition; for Emax: MCF7, SP1 antibody, read-out: ER-α In Cell Western Assay (SP1) Max Response; for DC50: SP1 antibody, read-out: ER-α In Cell Western Assay (SP1) IC50. In outline: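 Percent remaining ER: SP1 immunofluorescence normalized to DRAQ5 nuclear stain, compared with untreated controls. Treatment lasted 4 or 24 hr across 0.3–0.000003 μM final in MCF-7.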

What is called IC50 is the midpoint of a concentration-inhibition curve. Read a high IC50 as lower potency. Take `CC/C(=C(/c1ccc(/C=C/C(=O)O)cc1)c1ccc2scnc2c1)c1ccncc1Cl` [Compound 284, (E)-3-(4-((E)-1-(Benzo[d]thiazol-5-yl)-2-(3-chloropyridin-4-yl)but-1-en-1-yl)phenyl)acrylic acid]: in the assay on MCF-7 cells, the “MCF7 Viability Assay Max Response” value was “++ (++ = a single % value ≧ 40%)” and the IC50 was at most 100 nM. Also, on ER-α in MCF-7 cells, the Emax is at least 40% and the DC50 is at most 100 nM.
On to `CC/C(=C(/c1ccc(/C=C/C(=O)O)cc1)c1ccn2nncc2c1)c1ccccc1` [Compound 138, (E)-3-(4-((E)-1-([1,2,3]Triazolo[1,5-a]pyridin-5-yl)-2-phenylbut-1-en-1-yl)phenyl)acrylic acid], for which, in the assay on MCF-7 cells, the “MCF7 Viability Assay Max Response” value is “+ (+ = a single % value < 40%)” and the IC50 was over 100 nM. Also, at ER-α in MCF-7 cells, the Emax is at least 40% and the DC50 is over 100 nM.
With `CC/C(=C(/c1ccc(/C=C/C(=O)O)cc1)c1ccc2[nH]ncc2c1)c1ccc(Cc2ccccc2)cc1` [Compound 317, (E)-3-(4-((E)-2-(4-Benzylphenyl)-1-(1H-indazol-5-yl)but-1-en-1-yl)phenyl)acrylic acid], in the assay with MCF-7 cells, the “MCF7 Viability Assay Max Response” value is “++ (++ = a single % value ≧ 40%)” and the IC50 is at most 100 nM. On ER-α in MCF-7 cells, the Emax was at least 40% and the DC50 was at most 100 nM.
In the case of `CC/C(=C(/c1ccc(/C=C/C(=O)O)cc1)c1ccc2nccn2c1)c1ccc(Cl)cc1Cl` [Compound 232, (E)-3-(4-((E)-2-(2,4-Dichlorophenyl)-1-(imidazo[1,2-a]pyridin-6-yl)but-1-en-1-yl)phenyl)acrylic acid], in the assay with MCF-7 cells, the “MCF7 Viability Assay Max Response” value is “++ (++ = a single % value ≧ 40%)” and the IC50 is at most 100 nM. Besides, on ER-α in MCF-7 cells, the Emax is at least 40% and the DC50 is at most 100 nM.
As for `CC/C(=C(/c1ccc(/C=C/C(=O)O)cc1)c1ccc2nncn2c1)c1ccccc1` [Compound 127, (E)-3-(4-((E)-1-([1,2,4]Triazolo[4,3-a]pyridin-6-yl)-2-phenylbut-1-en-1-yl)phenyl)acrylic acid], in the assay with MCF-7 cells, the “MCF7 Viability Assay Max Response” value is reported as “+ (+ = a single % value < 40%)” and the IC50 is over 100 nM. At ER-α in MCF-7 cells, the Emax was under 40% and the DC50 was over 100 nM.
For the compound `CC/C(=C(/c1ccc(/C=C/C(=O)O)cc1)c1ccc2[nH]ncc2c1)c1ccc(C(=O)N(C)C)cc1F` [Compound 212, (E)-3-(4-((E)-2-(4-(Dimethylcarbamoyl)-2-fluorophenyl)-1-(1H-indazol-5-yl)but-1-en-1-yl)phenyl)acrylic acid], in the assay on MCF-7 cells, the “MCF7 Viability Assay Max Response” value was “++ (++ = a single % value ≧ 40%)” and the IC50 was over 100 nM. For the same compound, on ER-α in MCF-7 cells, the Emax was at least 40% and the DC50 was over 100 nM.
In the case of `CC/C(=C(/c1ccc(/C=C/C(=O)O)cc1)c1ccc2[nH]ncc2c1)c1ccccc1Oc1ccccc1` [Compound 147, (E)-3-(4-((E)-1-(1H-Indazol-5-yl)-2-(2-phenoxyphenyl)but-1-en-1-yl)phenyl)acrylic acid], in the assay with MCF-7 cells, the “MCF7 Viability Assay Max Response” value was “++ (++ = a single % value ≧ 40%)” and the half-inhibitory concentration (IC50) was at most 100 nM. At ER-α in MCF-7 cells, the Emax was at least 40% and the DC50 is at most 100 nM.
As to `CC/C(=C(/c1ccc(/C=C/C(=O)O)cc1)c1ccc2[nH]ncc2c1)c1ccc(F)c(Oc2ccccc2)c1` [Compound 294, (E)-3-(4-((E)-2-(4-Fluoro-3-phenoxyphenyl)-1-(1H-indazol-5-yl)but-1-en-1-yl)phenyl)acrylic acid], in the assay on MCF-7 cells, the “MCF7 Viability Assay Max Response” value is on record as “++ (++ = a single % value ≧ 40%)” and the 50% inhibitory concentration (IC50) is at most 100 nM. Moreover, on ER-α in MCF-7 cells, the Emax is at least 40% and the DC50 was at most 100 nM.
As to `CC/C(=C(/c1ccc(OC[C@H](C)N2CC[C@@H](C)C2)cc1)c1ccc2[nH]ncc2c1)c1ccccc1Cl` [Compound 330, 5-((E)-2-(2-Chlorophenyl)-1-(4-((S)-2-((R)-3-methylpyrrolidin-1-yl)propoxy)phenyl)but-1-en-1-yl)-1H-indazole], in the assay with MCF-7 cells, the “MCF7 Viability Assay Max Response” value is given as “++ (++ = a single % value ≧ 40%)” and the IC50 is at most 100 nM. Further, at ER-α in MCF-7 cells, the Emax was at least 40% and the DC50 is at most 100 nM.
On to `CC/C(=C(/c1ccc(/C=C/C(=O)O)cc1)c1ccc2[nH]ncc2c1)c1cccc(Oc2ccccc2C)c1` [Compound 368, (E)-3-(4-((E)-1-(1H-Indazol-5-yl)-2-(3-(o-tolyloxy)phenyl)but-1-en-1-yl)phenyl)acrylic acid], for which, in the assay with MCF-7 cells, the “MCF7 Viability Assay Max Response” value is reported as “++ (++ = a single % value ≧ 40%)” and the IC50 was at most 100 nM. For the same compound, on ER-α in MCF-7 cells, the Emax was at least 40% and the DC50 was at most 100 nM.
Regarding `CC/C(=C(/c1ccc(/C=C/C(=O)Nc2nccs2)cc1)c1ccc2[nH]ncc2c1)c1ccccc1` [Compound 430, (E)-3-(4-((E)-1-(1H-Indazol-5-yl)-2-phenylbut-1-en-1-yl)phenyl)-N-(thiazol-2-yl)acrylamide], in the assay on MCF-7 cells, the “MCF7 Viability Assay Max Response” value was “++ (++ = a single % value ≧ 40%)” and the half-maximal inhibitory concentration (IC50) is at most 100 nM. Also, on ER-α in MCF-7 cells, the Emax is at least 40% and the DC50 was at most 100 nM.
`CCCS(=O)(=O)NC(=O)/C=C/c1ccc(/C(=C(/CC)c2ccc(F)cc2Cl)c2ccc3[nH]ncc3c2)cc1` [Compound 409, (E)-3-(4-((E)-2-(2-Chloro-4-fluorophenyl)-1-(1H-indazol-5-yl)but-1-en-1-yl)phenyl)-N-(propylsulfonyl)acrylamide]: in the assay with MCF-7 cells, the “MCF7 Viability Assay Max Response” value was “++ (++ = a single % value ≧ 40%)” and the IC50 is at most 100 nM. In addition, at ER-α in MCF-7 cells, the Emax is at least 40% and the DC50 was at most 100 nM.
For the compound `CC/C(=C(/c1ccc(/C=C/C(=O)O)cc1)c1ccn2nccc2c1)c1ccccc1` [Compound 125, (E)-3-(4-((E)-2-Phenyl-1-(pyrazolo[1,5-a]pyridin-5-yl)but-1-en-1-yl)phenyl)acrylic acid], in the assay with MCF-7 cells, the “MCF7 Viability Assay Max Response” value was “++ (++ = a single % value ≧ 40%)” and the concentration for half-maximal inhibition (IC50) is over 100 nM. Moreover, at ER-α in MCF-7 cells, the Emax was at least 40% and the DC50 is over 100 nM.
As for `CC/C(=C(/c1ccc(/C=C/C(=O)O)cc1)c1ccc2[nH]ncc2c1)c1cccc(-c2cscn2)c1` [Compound 392, (E)-3-(4-((E)-1-(1H-Indazol-5-yl)-2-(3-(thiazol-4-yl)phenyl)but-1-en-1-yl)phenyl)acrylic acid], in the assay on MCF-7 cells, the “MCF7 Viability Assay Max Response” value was “++ (++ = a single % value ≧ 40%)” and the IC50 is at most 100 nM. On ER-α in MCF-7 cells, the Emax is at least 40% and the DC50 is at most 100 nM.
Regarding `CC/C(=C(/c1ccc(/C=C/C(=O)O)cc1)c1ccc2[nH]ncc2c1)c1cccc2occc12` [Compound 96, (E)-3-(4-((E)-2-(Benzofuran-4-yl)-1-(1H-indazol-5-yl)but-1-en-1-yl)phenyl)acrylic acid], in the assay on MCF-7 cells, the “MCF7 Viability Assay Max Response” value is given as “++ (++ = a single % value ≧ 40%)” and the half-maximal inhibitory concentration (IC50) is at most 100 nM. Moreover, at ER-α in MCF-7 cells, the Emax was at least 40% and the DC50 is at most 100 nM.
As for `CC/C(=C(/c1ccc(/C=C/C(=O)O)cc1)c1ccc2[nH]ncc2c1)c1ccc(-c2cscn2)cc1` [Compound 388, (E)-3-(4-((E)-1-(1H-Indazol-5-yl)-2-(4-(thiazol-4-yl)phenyl)but-1-en-1-yl)phenyl)acrylic acid], in the assay with MCF-7 cells, the “MCF7 Viability Assay Max Response” value is recorded as “++ (++ = a single % value ≧ 40%)” and the half-inhibitory concentration (IC50) was over 100 nM. Further, on ER-α in MCF-7 cells, the Emax was at least 40% and the DC50 was at most 100 nM.
The like results for `CS(=O)(=O)c1ccc(Oc2ccc(/C(=C(\c3ccc(/C=C/C(=O)O)cc3)c3ccc4[nH]ncc4c3)C3CCC3)cc2)nc1` [Compound 162, (E)-3-(4-((E)-2-Cyclobutyl-1-(1H-indazol-5-yl)-2-(4-((5-(methylsulfonyl)pyridin-2-yl)oxy)phenyl)vinyl)phenyl)acrylic acid] were, in that order, “++ (++ = a single % value ≧ 40%)”, at most 100 nM, at least 40% and at most 100 nM.
Taken in the same sequence, the figures for `CC/C(=C(/c1ccc(/C=C/C(=O)O)cc1)c1ccc2[nH]ncc2c1)c1ccc(OCC(=O)O)cc1` [Compound 348, (E)-3-(4-((E)-2-(4-(Carboxymethoxy)phenyl)-1-(1H-indazol-5-yl)but-1-en-1-yl)phenyl)acrylic acid] were “+ (+ = a single % value < 40%)”, over 100 nM, under 40% and over 100 nM.
The like results for `CC/C(=C(/c1ccc(/C=C/C(=O)O)cc1)c1ccc2[nH]ncc2c1)c1cccc(Oc2ccc(F)cc2)c1` [Compound 269, (E)-3-(4-((E)-2-(3-(4-Fluorophenoxy)phenyl)-1-(1H-indazol-5-yl)but-1-en-1-yl)phenyl)acrylic acid] were, in that order, “++ (++ = a single % value ≧ 40%)”, at most 100 nM, at least 40% and at most 100 nM.

These data come from patent US9399646B2 (Genentech, Inc., priority 2010, dated 2016).
